In patent US11753407B2, “Compounds for treating spinal muscular atrophy” (PTC Therapeutics, Inc., priority 2012, dated 2023):

Key:
[1] = tested on: Smn protein in SMA patient fibroblast cells (GM03813); test: Smn protein assay in cultured cells (SMN HTRF); type: cell-based, human; conditions: SMA patient fibroblast cells, 48 hours; for maximum fold (Fold) increase of Smn protein: 7-point concentration data, fold relative to vehicle control; for EC1.5x for Smn protein expression: 7-point concentration curve, SMN HTRF, concentration producing 1.5 times Smn protein vs DMSO vehicle control
In short: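 Smn protein quantified by HTRF with anti-SMN d2/kryptate pair, 665/620 nm ratio blank-corrected, in RIPA lysates of GM03813 fibroblasts after 48 h compound exposure (7 concentrations, 3.16-fold steps, triplicates). Values: concentration producing 1.5× vehicle Smn level, and maximal fold increase.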

[2] = tested on: SMN2 minigene mRNA (SMN2-A minigene) in HEK293H cells; test: SMN2 minigene mRNA splicing RT-qPCR assay in cultured cells; type: cell-based, human; conditions: Homo sapiens, HEK293-H; concentration increasing full length SMN2 mRNA 1.5-fold relative to vehicle-treated cells; HEK293H cells with SMN2-A minigene, 24 hours, 7-point concentration data; read-out: EC1.5x for production of full length SMN2 mRNA
In short: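 EC1.5× = concentration raising full-length SMN2 minigene mRNA 1.5-fold over vehicle, from 7-point curves in duplicate. Stably transfected HEK293H cells exposed 24 h at 37 °C; lysates assayed by multiplex RT-qPCR, minigene FL signal normalized to GAPDH via modified ΔΔCt.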

melting point | Compound | maximum fold (Fold) increase of Smn protein [1] | EC (1.5-fold increase) [2] | EC1.5x for Smn protein expression [1]
150 to 152 °C | CN1CCCN(c2ccc3nc(-c4ccc5c(c4)OCCO5)cc(=O)n3c2)CC1 [Compound 39, 2-(2,3-dihydro-1,4-benzodioxin-6-yl)-7-(4-methyl-1,4-diazepan-1-yl)-4H-pyrido[1,2-a]pyrimidin-4-one] | * (A maximum fold increase of ≤1.2 is indicated by one star (*)) | 3 to 30 µM | 
183 to 185 °C | COc1ccc(-c2cc(=O)n3cc(N4CCN(C)CC4)cc(F)c3n2)cc1OC [Compound 40, 2-(3,4-dimethoxyphenyl)-9-fluoro-7-(4-methylpiperazin-1-yl)-4H-pyrido[1,2-a]pyrimidin-4-one] | * (A maximum fold increase of ≤1.2 is indicated by one star (*)) | 3 to 30 µM | 
185 to 189 °C | O=c1cc(-c2cccc(Cl)c2)nc2ccc(N3CCNCC3)cn12 [Compound 41, 2-(3-chlorophenyl)-7-(piperazin-1-yl)-4H-pyrido[1,2-a]pyrimidin-4-one] | *** (a fold increase between >1.35 and ≤1.5 is indicated by three stars (***)) | 0.3 to 1 µM | 
207 to 212 °C | O=c1cc(-c2ccc(Cl)cc2)nc2ccc(N3CCNCC3)cn12 [Compound 42, 2-(4-chlorophenyl)-7-(piperazin-1-yl)-4H-pyrido[1,2-a]pyrimidin-4-one] | * (A maximum fold increase of ≤1.2 is indicated by one star (*)) | 1 to 3 µM | 
199 to 207 °C | O=c1cc(-c2cccc(C(F)(F)F)c2)nc2ccc(N3CCNCC3)cn12 [Compound 43, 7-(piperazin-1-yl)-2-[3-(trifluoromethyl)phenyl]-4H-pyrido[1,2-a]pyrimidin-4-one] | *** (a fold increase between >1.35 and ≤1.5 is indicated by three stars (***)) | 0.1 to 0.3 µM | ** (an EC1.5× between >1 μM and ≤3 μM is indicated by two stars (**))
285 °C (dec.) | O=c1cc(-c2ccc(C(F)(F)F)cc2)nc2ccc(N3CCNCC3)cn12 [Compound 44, 7-(piperazin-1-yl)-2-[4-(trifluoromethyl)phenyl]-4H-pyrido[1,2-a]pyrimidin-4-one] | * (A maximum fold increase of ≤1.2 is indicated by one star (*)) | 1 to 3 µM | 
183 to 187 °C | Cc1cccc(-c2cc(=O)n3cc(N4CCNCC4)ccc3n2)c1 [Compound 45, 2-(3-methylphenyl)-7-(piperazin-1-yl)-4H-pyrido[1,2-a]pyrimidin-4-one] | ** (a fold increase between >1.2 and ≤1.35 is indicated by two stars (**)) | 3 to 30 µM | 
214 to 218 °C | O=c1cc(-c2ccc(F)cc2)nc2ccc(N3CCNCC3)cn12 [Compound 46, 2-(4-fluorophenyl)-7-(piperazin-1-yl)-4H-pyrido[1,2-a]pyrimidin-4-one] | *** (a fold increase between >1.35 and ≤1.5 is indicated by three stars (***)) | 1 to 3 µM | 
237 to 242 °C | O=c1cc(-c2ccc([N+](=O)[O-])cc2)nc2ccc(N3CCNCC3)cn12 [Compound 47, 2-(4-nitrophenyl)-7-(piperazin-1-yl)-4H-pyrido[1,2-a]pyrimidin-4-one] | *** (a fold increase between >1.35 and ≤1.5 is indicated by three stars (***)) | 1 to 3 µM | 
224 to 226 °C | COc1ccc(-c2cc(=O)n3cc(NC4CCNCC4)cc(F)c3n2)cc1OC [Compound 48, 2-(3,4-dimethoxyphenyl)-9-fluoro-7-(piperidin-4-ylamino)-4H-pyrido[1,2-a]pyrimidin-4-one] | * (A maximum fold increase of ≤1.2 is indicated by one star (*)) | 3 to 30 µM | 
216 to 218 °C | CN(C)c1ccc(-c2cc(=O)n3cc(N4CCNCC4)cc(F)c3n2)cc1 [Compound 49, 2-[4-(dimethylamino)phenyl]-9-fluoro-7-(piperazin-1-yl)-4H-pyrido[1,2-a]pyrimidin-4-one] | * (A maximum fold increase of ≤1.2 is indicated by one star (*)) | 3 to 30 µM | 
205 to 207 °C | C[C@@H]1CN(c2cc(F)c3nc(-c4ccc(N(C)C)cc4)cc(=O)n3c2)CCN1 [Compound 50, 2-[4-(dimethylamino)phenyl]-9-fluoro-7-[(3R)-3-methylpiperazin-1-yl]-4H-pyrido[1,2-a]pyrimidin-4-one] | ** (a fold increase between >1.2 and ≤1.35 is indicated by two stars (**)) | 3 to 30 µM | 
142 to 146 °C | O=c1cc(-c2ccccc2F)nc2ccc(N3CCNCC3)cn12 [Compound 51, 2-(2-fluorophenyl)-7-(piperazin-1-yl)-4H-pyrido[1,2-a]pyrimidin-4-one] | ** (a fold increase between >1.2 and ≤1.35 is indicated by two stars (**)) | 3 to 30 µM | 
211 to 215 °C | CN(C)c1ccc(-c2cc(=O)n3cc(N4CCNCC4)ccc3n2)cc1 [Compound 53, 2-[4-(dimethylamino)phenyl]-7-(piperazin-1-yl)-4H-pyrido[1,2-a]pyrimidin-4-one] | * (A maximum fold increase of ≤1.2 is indicated by one star (*)) | 1 to 3 µM | 
199 to 202 °C | C[C@H]1CN(c2ccc3nc(-c4ccc(N(C)C)cc4)cc(=O)n3c2)CCN1 [Compound 54, 2-[4-(dimethylamino)phenyl]-7-[(3S)-3-methylpiperazin-1-yl]-4H-pyrido[1,2-a]pyrimidin-4-one] | * (A maximum fold increase of ≤1.2 is indicated by one star (*)) | 1 to 3 µM | 
186 to 188 °C | Cc1ccc(-c2cc(=O)n3cc(N4CCNCC4)ccc3n2)cc1C [Compound 55, 2-(3,4-dimethylphenyl)-7-(piperazin-1-yl)-4H-pyrido[1,2-a]pyrimidin-4-one] | * (A maximum fold increase of ≤1.2 is indicated by one star (*)) | 1 to 3 µM | 
207 to 209 °C | Cc1ccc(-c2cc(=O)n3cc(N4CCN[C@@H](C)C4)ccc3n2)cc1C [Compound 56, 2-(3,4-dimethylphenyl)-7-[(3S)-3-methylpiperazin-1-yl]-4H-pyrido[1,2-a]pyrimidin-4-one] | * (A maximum fold increase of ≤1.2 is indicated by one star (*)) | 1 to 3 µM | 
178 to 180 °C | CN(C)c1cccc(-c2cc(=O)n3cc(N4CCNCC4)ccc3n2)c1 [Compound 57, 2-[3-(dimethylamino)phenyl]-7-(piperazin-1-yl)-4H-pyrido[1,2-a]pyrimidin-4-one] | * (A maximum fold increase of ≤1.2 is indicated by one star (*)) | 3 to 30 µM | 
144 to 146 °C | C[C@H]1CN(c2ccc3nc(-c4cccc(N(C)C)c4)cc(=O)n3c2)CCN1 [Compound 58, 2-[3-(dimethylamino)phenyl]-7-[(3S)-3-methylpiperazin-1-yl]-4H-pyrido[1,2-a]pyrimidin-4-one] | * (A maximum fold increase of ≤1.2 is indicated by one star (*)) | 3 to 30 µM | 
131 to 133 °C | O=c1cc(-c2ccc(OC(F)F)cc2)nc2ccc(N3CCNCC3)cn12 [Compound 59, 2-[4-(difluoromethoxy)phenyl]-7-(piperazin-1-yl)-4H-pyrido[1,2-a]pyrimidin-4-one] | * (A maximum fold increase of ≤1.2 is indicated by one star (*)) | 1 to 3 µM | 
166 to 168 °C | C[C@H]1CN(c2ccc3nc(-c4ccc(OC(F)F)cc4)cc(=O)n3c2)CCN1 [Compound 60, 2-[4-(difluoromethoxy)phenyl]-7-[(3S)-3-methylpiperazin-1-yl]-4H-pyrido[1,2-a]pyrimidin-4-one] | * (A maximum fold increase of ≤1.2 is indicated by one star (*)) | 1 to 3 µM | 
153 to 156 °C | O=c1cc(-c2cccc(F)c2)nc2ccc(N3CCNCC3)cn12 [Compound 61, 2-(3-fluorophenyl)-7-(piperazin-1-yl)-4H-pyrido[1,2-a]pyrimidin-4-one] | **** (a fold increase between >1.5 and ≤1.65 is indicated by four stars (****)) | 0.3 to 1 µM | *** (an EC1.5× between >0.3 μM and ≤1 μM is indicated by three stars (***))
175 °C (dec.) | O=c1cc(-c2cccc([N+](=O)[O-])c2)nc2ccc(N3CCNCC3)cn12 [Compound 62, 2-(3-nitrophenyl)-7-(piperazin-1-yl)-4H-pyrido[1,2-a]pyrimidin-4-one] | ***** (a fold increase >1.65 is indicated by five stars (*****)) | 0.1 to 0.3 µM | *** (an EC1.5× between >0.3 μM and ≤1 μM is indicated by three stars (***))
